Values after ≈ are worked out from the molar mass of the structure shown.
Assays:
[1] = test system: Respiratory Syncytial Virus (RSV), strain A2; experiment: Antiviral: cytopathic effect of RSV on A549 cells; type: cell-based; conditions: for Cytopathic effect (cpe): added 1 hour after virus absorption, 96 hours at 33° C., versus untreated lane
Method: (§1) A549 (ATCC CCL-185) cells were plated onto a 96 well and allowed to attach overnight, the wells were washed, and 100 ul of DMEM (Gibco) with 2% FCS was added. To the first column of the data set below, 100 μl of neat virus was added. The virus used was Respiratory Syncytial Virus (RSV), strain A2, a common laboratory strain which retains the ability to infect animal models.
(§2) A two serial dilution was performed (up to column 10), lanes 11+12 were uninfected controls, but relevant lanes contained the appropriate concentration of Laureth 4, laureth 4 was added 1 hour after virus absorption. The alkoxylated alkanol compounds used in the experiment were ‘high purity’, i.e. having a GC purity of at least 97%.
(§3) After 96 hours incubation at 33° C. the medium was removed, cell washed with PBS and stained with methylene blue (Gibco). Cytopathic effect (cpe) was noted visually and wells marked either as positive or negative when view under a light microscope at 4× magnification.

yeasts = experiment: MIC with yeasts (Table XI); type: cell-based; conditions: 48 h, 48 hours at 37° C., aerobic
Method: Further experiments have also been conducted to determine the MIC of a number of other compositions as follows. The experimental procedure followed is the same as that initially described at the beginning of this Examples and Data section of the specification, except where indicated below.
The results were obtained following incubation for 48 hours at 37° C. in aerobic conditions.

[2] = test system: A549 (ATCC CCL-185) cells; type: cell-based
Method: as §1, §2, §3

MRSA NCTC 11939 = experiment: Synergy testing: disc susceptibility, zone of inhibition on agar containing Laureth derivative; type: cell-based, Staphylococcus aureus; conditions: MRSA NCTC 11939, disc test
Method: There now follows data relating to a screen for synergistic interaction between Laureth derivatives [C12E1 to C12E8] and 12 conventional anti-staphylococcal agents.
Ethoxylated Lauryl Alcohol Derivative Preparation As plates containing quarter strength of the MIC of NCTC 11939 are needed, and therefore very small weights of each compound, they were prepared at twenty time strength in 20 mL volumes in plastic universals. Once prepared these solutions were diluted […] by adding 1 mL to 1 mL SDW, resulting a 2 mL volume at ten times strength. This was undertaken in duplicate to create two identical plates.
IST was prepared as previously stated in above. 18 mL agar was added to each universal and then poured into sterile Petri dishes. Control plates were prepared as stated above
A 0.5 McFarland suspension of MRSA NCTC 11939 was prepared using SDW. This was then adjusted to a concentration of 1.5×107 by adding 200 μL to 1.8 mL of SDW. Once diluted, a sterile cotton swab was used to spread the suspension evenly across the entire surface of each agar plate.
Twelve antibiotics discs were added to the plates, 6 per plate in a circle. The plates were then incubated aerobically at 37° C.
The diameter of the zones of clearance were measured and recorded in millimetres. The zones for each compound were compared to the control and to BSAC breakpoints.
A variation of zone size within 2 mm is within acceptable limits of assay reproducibility.

CCCCCCCCCCCCOCCOCCOCCOCCO [L4, Tetraethylene Glycol Monododecyl Ether]
Cytopathic effect (cpe) ([1]; 0.01 mM): significantly reduced
Cytopathic effect (cpe) ([1]; 0.1 mM): significantly reduced
cytopathic effect of the virus on the cells (overall) ([1]; RSV A2 on A549 cells): can alleviate the cytopathic effect
MIC (yeasts; Candida guilliemondii 380022E): > 220 µM
MIC (yeasts; Candida lustaniae 458891B): > 220 µM
MIC (yeasts; all of the yeasts tested): < 880 µM
MIC (yeasts; Candida albicans, Candida albicans 383107): > 220 µM
MIC (yeasts; Candida albicans, Candida albicans 384403C): 220 µM (≈ 79.8 µg/mL)
MIC (yeasts; Candida albicans, Candida albicans 457932F): > 220 µM
MIC (yeasts; Candida albicans, Candida albicans 464644V): 220 µM (≈ 79.8 µg/mL)
MIC (yeasts; Candida albicans, Candida albicans 540668D): 110 µM (≈ 39.9 µg/mL)
MIC (yeasts; Candida albicans, Candida albicans 540992V): 220 µM (≈ 79.8 µg/mL)
MIC (yeasts; Candida albicans, Candida albicans 561251J): > 220 µM
MIC (yeasts; Candida dubliniensis, Candida dubliniensis 383086P): 110 µM (≈ 39.9 µg/mL)
MIC (yeasts; Candida tropicalis, Candida tropicalis 470273M): > 220 µM
MIC (yeasts; Kluyveromyces marxianus, Candida kefyr 337838T): 55 µM (≈ 19.9 µg/mL)
MIC (yeasts; Lodderomyces parapsilosis, Candida parapsilosis 381611V): > 220 µM
MIC (yeasts; Lodderomyces parapsilosis, Candida parapsilosis 547133B): > 220 µM
MIC (yeasts; Nakaseomyces glabratus, Candida glabrata 437713D): > 220 µM
MIC (yeasts; Nakaseomyces glabratus, Candida glabrata 882870Q): > 220 µM
MIC (yeasts; Pichia kudriavzevii, Candida krusei 378573D): > 220 µM
state of treated, uninfected cells [2]: healthy and showed little cellular apathy

CCCCCCCCCCCCOCCOCCOCCOCCOCCOCCOCCOCCO [L8, Octaethylene Glycol Monododecyl Ether]
susceptibility to various other agents in the presence of Laureth derivative (MRSA NCTC 11939): slight increase in susceptibility

Source: patent US20130165368A1, “ANTIMICROBIAL COMPOUNDS” (priority 2010, published 2013)
